# In paper PMC11413854, “Reversible Control of Native GluN2B-Containing NMDA Receptors with Visible Light” (ACS Chemical Neuroscience, 2024):
# Biological target: T1, GluN1-L135H/GluN2B (UniProt P35439+Q01097, L135H)
# T1 construct: expressed in transfected cells; host or cells: Xenopus laevis oocytes (nuclear cDNA injection)
# Assay: TEVC on Xenopus oocytes, ifenprodil site mutant
# Format: cell-based, rat GluN1, mouse GluN2B
# Settings: 1 µM trans-OptoNAM-3 (dark)
# Excerpt: We finally investigated the location of the OptoNAM-3 binding-site on the receptor. […] The binding site for GluN2B-selective antagonists at the GluN1/GluN2B NTD dimer interface contains two partially overlapping pockets that accommodate GluN2B-selective NAMs of distinct chemical scaffolds:[19] either scaffolds related to ifenprodil or scaffolds related to another GluN2B-selective NAM called EVT-101.[47]
# We used cDNA coding for rat GluN1–1a (named GluN1 herein) (GenBank: U08261.1), rat GluN2A (GenBank: D13211.1), mouse GluN2B (GenBank: D10651.2), rat GluA1 flop (GenBank: M36418.2), and rat Myc-GluA2(Q)-flip (GenBank: AF164344.1) cloned into pcDNA3-based expression plasmids. GluK2 (GenBank: Z11548.1) corresponds to the fully RNA-edited version.[80] The GluN2B-ΔNTD construct is from ref[45] and GluN2B–N615K is from ref[81]. Single mutants GluN2B-Q110G and GluN1-L135H were from ref[19]. The GluA2 cDNA contains a Myc tag ([…]) fused between the signal peptide and the N-terminus sequences, and the GluA2 subunit is […] for its Q/R/N site (GluA2(Q)) to allow permeation of homomeric GluA2 receptors.[2] cDNAs coding for rat GluN2C (GenBank: M91563.1) and GluN2D subunits (GenBank: L31611.1) were in prK5 plasmids. […]
# T1 sequence (Q01097 27-1482, other chains not shown): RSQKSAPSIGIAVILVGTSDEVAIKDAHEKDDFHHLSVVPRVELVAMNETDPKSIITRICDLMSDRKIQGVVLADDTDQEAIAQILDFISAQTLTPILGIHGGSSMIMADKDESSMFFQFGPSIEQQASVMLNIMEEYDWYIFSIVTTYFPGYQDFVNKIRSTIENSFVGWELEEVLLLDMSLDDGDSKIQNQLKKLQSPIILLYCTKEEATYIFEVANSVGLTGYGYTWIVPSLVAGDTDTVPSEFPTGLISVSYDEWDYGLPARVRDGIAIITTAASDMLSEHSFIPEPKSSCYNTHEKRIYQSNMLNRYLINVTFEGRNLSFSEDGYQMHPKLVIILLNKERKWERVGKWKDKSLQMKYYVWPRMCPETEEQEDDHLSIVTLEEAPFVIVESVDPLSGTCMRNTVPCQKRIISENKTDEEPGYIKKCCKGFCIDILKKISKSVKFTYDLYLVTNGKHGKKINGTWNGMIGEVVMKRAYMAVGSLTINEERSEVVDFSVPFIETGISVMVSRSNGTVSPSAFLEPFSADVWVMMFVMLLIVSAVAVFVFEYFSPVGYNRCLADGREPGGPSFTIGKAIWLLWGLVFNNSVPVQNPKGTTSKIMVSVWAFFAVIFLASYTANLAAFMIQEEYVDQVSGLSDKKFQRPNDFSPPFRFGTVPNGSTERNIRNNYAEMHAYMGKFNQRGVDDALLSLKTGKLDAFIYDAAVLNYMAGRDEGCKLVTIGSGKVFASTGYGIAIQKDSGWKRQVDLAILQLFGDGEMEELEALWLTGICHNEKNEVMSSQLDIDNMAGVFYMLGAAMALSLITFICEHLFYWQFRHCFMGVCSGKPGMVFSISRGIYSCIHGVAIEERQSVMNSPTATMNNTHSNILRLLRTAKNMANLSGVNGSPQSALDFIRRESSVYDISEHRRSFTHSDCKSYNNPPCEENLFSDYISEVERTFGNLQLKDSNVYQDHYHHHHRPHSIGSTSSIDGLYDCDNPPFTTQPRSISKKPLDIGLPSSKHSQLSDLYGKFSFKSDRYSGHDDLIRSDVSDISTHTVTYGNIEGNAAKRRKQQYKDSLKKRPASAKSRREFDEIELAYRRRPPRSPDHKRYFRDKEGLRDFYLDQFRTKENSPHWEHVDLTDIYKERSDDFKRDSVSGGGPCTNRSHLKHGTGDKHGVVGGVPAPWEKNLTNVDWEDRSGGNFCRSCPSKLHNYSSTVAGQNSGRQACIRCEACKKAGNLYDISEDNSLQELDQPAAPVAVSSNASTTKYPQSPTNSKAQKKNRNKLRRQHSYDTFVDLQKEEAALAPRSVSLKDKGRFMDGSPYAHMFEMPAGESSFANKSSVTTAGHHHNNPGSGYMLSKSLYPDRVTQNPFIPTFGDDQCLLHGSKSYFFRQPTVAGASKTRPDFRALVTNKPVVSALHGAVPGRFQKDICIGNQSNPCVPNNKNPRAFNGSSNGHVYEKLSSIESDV
structure (smiles),measurement,value
"c1ccc(/N=N/c2ccc(CCNc3ccncc3)cc2)cc1 [OptoNAM-3, (E)-N-(4-(Phenyldiazenyl)phenethyl)pyridin-4-amine]",inhibition of GluN1-L135H/GluN2B,13.546%
